Data published in ChEMBL document CHEMBL1158274, “Antibacterial neoclerodane diterpenoids from Ajuga lupulina” (1996).
Calls of active or inactive are those of the source. The rule behind the calls is not given here.

Assays:
Assay type in all cases: functional
[1] = system: Staphylococcus aureus; assay: Antibacterial activity against Staphylococcus aureus by paper disk diffusion method
[2] = system: Escherichia coli; assay: Antibacterial activity against Escherichia coli by paper disk diffusion method
[3] = system: Pseudomonas aeruginosa; assay: Antibacterial activity against Pseudomonas aeruginosa NJ94 by paper disk diffusion method

Structure (SMILES) | Activity [1] | Activity [2] | Activity [3] | inhibition zone (IZ) [1] [mm] | inhibition zone (IZ) [2] [mm] | inhibition zone (IZ) [3] [mm]
CO[C@H]1C[C@@H]2C[C@@H]([C@@]3(C)[C@H](C)C[C@H](OC(C)=O)[C@]4(COC(C)=O)[C@@H]3CCC[C@]43CO3)O[C@@H]2O1 | inactive | inactive | inactive | – | – | –
CC[C@@H](C)C(=O)O[C@H]1CC[C@@H]2[C@@](C)([C@@H]3C[C@H]4C[C@H](OC)O[C@H]4O3)[C@H](C)C[C@H](OC(C)=O)[C@@]2(COC(C)=O)[C@@]12CO2 [LUPULIN B] | – | – | inactive | 1.2 | 1.2 | –
CC[C@@H](C)C(=O)O[C@H]1[C@H](O)C[C@@H]2[C@@](C)([C@@H]3C[C@H]4C[C@@H](OC)O[C@H]4O3)[C@H](C)C[C@H](OC(C)=O)[C@@]2(COC(C)=O)[C@@]12CO2 [LUPULIN A] | – | – | – | 1.5 | 3 | 3
CC(=O)OC[C@@]12[C@@H](OC(C)=O)C[C@@H](C)[C@](C)([C@@H]3C[C@H]4C[C@H](O)O[C@H]4O3)[C@H]1CCC[C@]21CO1 | – | – | inactive | 1.2 | 1.2 | –
